Experimental data reported in patent US8192962B2, “Processes for detecting toxic substances” (Daikin Industries, Ltd., priority 2001, dated 2012).

System: Metabolism protein genes
Assay: DNA chip mRNA expression in yeast, metabolism protein genes (Table 7)
Format: cell-based, Saccharomyces cerevisiae S288C
Procedure, shortened: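 Ratios compare mRNA levels in stressed and control S. cerevisiae. Each toxicant was applied for two hours to log-phase cultures at 25° C. at a sub-lethal, growth-inhibiting level; fluorescent cDNA (Cy3- or Cy5-dUTP) was hybridized to a genome-wide yeast chip for over 12 h at 65° C.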

Oc1cc(Cl)c(Cl)cc1Cl [(6), 2,4,5-trichlorophenol]
The level of expressed mRNA in the presence of chemical substance/The level of expressed mRNA in the absence of chemical substance (yeast gene YAL012W): 1.6 | The level of expressed mRNA in the presence of chemical substance/The level of expressed mRNA in the absence of chemical substance (yeast gene YAL038W): 1.3 | The level of expressed mRNA in the presence of chemical substance/The level of expressed mRNA in the absence of chemical substance (yeast gene YBL001C): 2.4 | level of expressed mRNA in the presence/in the absence of chemical substance (yeast gene YBR003W): 1.2 | level of expressed mRNA in the presence/in the absence of chemical substance (yeast gene YBR011C): 2.0 | level of expressed mRNA in the presence/in the absence of chemical substance (yeast gene YBR020W): 0.8 | The level of expressed mRNA in the presence of chemical substance/The level of expressed mRNA in the absence of chemical substance (yeast gene YBR023C): 0.5 | The level of expressed mRNA in the presence of chemical substance/The level of expressed mRNA in the absence of chemical substance (yeast gene YBR029C): 0.8 | The level of expressed mRNA in the presence of chemical substance/The level of expressed mRNA in the absence of chemical substance (yeast gene YBR111C): 3.0 | The level of expressed mRNA in the presence of chemical substance/The level of expressed mRNA in the absence of chemical substance (yeast gene YBR183W): 2.5 | The level of expressed mRNA in the presence of chemical substance/The level of expressed mRNA in the absence of chemical substance (yeast gene YBR222C): 1.3 | The level of expressed mRNA in the presence of chemical substance/The level of expressed mRNA in the absence of chemical substance (yeast gene YBR256C): 2.0 | The level of expressed mRNA in the presence of chemical substance/The level of expressed mRNA in the absence of chemical substance (yeast gene YCL009C): 1.8 | The level of expressed mRNA in the presence of chemical substance/The level of expressed mRNA in the absence of chemical substance (yeast gene YCL064C): 3.3 | level of expressed mRNA in the presence/in the absence of chemical substance (yeast gene YCR010C): 1.3 | level of expressed mRNA in the presence/in the absence of chemical substance (yeast gene YCR034W): 0.3 | The level of expressed mRNA in the presence of chemical substance/The level of expressed mRNA in the absence of chemical substance (yeast gene YCR048W): 0.2 | The level of expressed mRNA in the presence of chemical substance/The level of expressed mRNA in the absence of chemical substance (yeast gene YCR098C): 1.6 | The level of expressed mRNA in the presence of chemical substance/The level of expressed mRNA in the absence of chemical substance (yeast gene YDR009W): 2.4 | The level of expressed mRNA in the presence of chemical substance/The level of expressed mRNA in the absence of chemical substance (yeast gene YDR019C): 4.8 | level of expressed mRNA in the presence/in the absence of chemical substance (yeast gene YDR050C): 1.7 | level of expressed mRNA in the presence/in the absence of chemical substance (yeast gene YDR073W): 1.3 | level of expressed mRNA in the presence/in the absence of chemical substance (yeast gene YDR123C): 0.7 | level of expressed mRNA in the presence/in the absence of chemical substance (yeast gene YDR178W): 2.1 | level of expressed mRNA in the presence/in the absence of chemical substance (yeast gene YDR277C): 1.1 | level of expressed mRNA in the presence/in the absence of chemical substance (yeast gene YDR284C): 1.8 | level of expressed mRNA in the presence/in the absence of chemical substance (yeast gene YDR345C): 1.2 | The level of expressed mRNA in the presence of chemical substance/The level of expressed mRNA in the absence of chemical substance (yeast gene YDR380W): 0.4 | level of expressed mRNA in the presence/in the absence of chemical substance (yeast gene YDR400W): 1.1 | level of expressed mRNA in the presence/in the absence of chemical substance (yeast gene YDR408C): 0.9 | level of expressed mRNA in the presence/in the absence of chemical substance (yeast gene YDR483W): 1.5 | The level of expressed mRNA in the presence of chemical substance/The level of expressed mRNA in the absence of chemical substance (yeast gene YDR497C): 0.6 | The level of expressed mRNA in the presence of chemical substance/The level of expressed mRNA in the absence of chemical substance (yeast gene YDR502C): 1.5 | The level of expressed mRNA in the presence of chemical substance/The level of expressed mRNA in the absence of chemical substance (yeast gene YDR516C): 1.8 | level of expressed mRNA in the presence/in the absence of chemical substance (yeast gene YEL063C): 1.3 | The level of expressed mRNA in the presence of chemical substance/The level of expressed mRNA in the absence of chemical substance (yeast gene YER014W): 4.0 | level of expressed mRNA in the presence/in the absence of chemical substance (yeast gene YER015W): 0.9 | The level of expressed mRNA in the presence of chemical substance/The level of expressed mRNA in the absence of chemical substance (yeast gene YER026C): 2.5 | The level of expressed mRNA in the presence of chemical substance/The level of expressed mRNA in the absence of chemical substance (yeast gene YER053C): 2.8 | The level of expressed mRNA in the presence of chemical substance/The level of expressed mRNA in the absence of chemical substance (yeast gene YER069W): 1.3 | level of expressed mRNA in the presence/in the absence of chemical substance (yeast gene YER081W): 1.1 | The level of expressed mRNA in the presence of chemical substance/The level of expressed mRNA in the absence of chemical substance (yeast gene YER096W): 1.2 | level of expressed mRNA in the presence/in the absence of chemical substance (yeast gene YER120W): 1.5 | The level of expressed mRNA in the presence of chemical substance/The level of expressed mRNA in the absence of chemical substance (yeast gene YER178W): 2.5 | level of expressed mRNA in the presence/in the absence of chemical substance (yeast gene YFL011W): 1.0 | The level of expressed mRNA in the presence of chemical substance/The level of expressed mRNA in the absence of chemical substance (yeast gene YFL014W): 9.3 | The level of expressed mRNA in the presence of chemical substance/The level of expressed mRNA in the absence of chemical substance (yeast gene YFL030W): 1.3 | The level of expressed mRNA in the presence of chemical substance/The level of expressed mRNA in the absence of chemical substance (yeast gene YFL031W): 0.3 | The level of expressed mRNA in the presence of chemical substance/The level of expressed mRNA in the absence of chemical substance (yeast gene YFL056C): 0.6 | The level of expressed mRNA in the presence of chemical substance/The level of expressed mRNA in the absence of chemical substance (yeast gene YFL057C): 1.2 | The level of expressed mRNA in the presence of chemical substance/The level of expressed mRNA in the absence of chemical substance (yeast gene YFR047C): 2.0 | level of expressed mRNA in the presence/in the absence of chemical substance (yeast gene YGL012W): 1.6 | The level of expressed mRNA in the presence of chemical substance/The level of expressed mRNA in the absence of chemical substance (yeast gene YGL022W): 0.9 | level of expressed mRNA in the presence/in the absence of chemical substance (yeast gene YGL115W): 1.2 | The level of expressed mRNA in the presence of chemical substance/The level of expressed mRNA in the absence of chemical substance (yeast gene YGL126W): 1.6 | level of expressed mRNA in the presence/in the absence of chemical substance (yeast gene YGL205W): 1.6 | The level of expressed mRNA in the presence of chemical substance/The level of expressed mRNA in the absence of chemical substance (yeast gene YGL209W): 1.0 | The level of expressed mRNA in the presence of chemical substance/The level of expressed mRNA in the absence of chemical substance (yeast gene YGL248W): 2.7 | The level of expressed mRNA in the presence of chemical substance/The level of expressed mRNA in the absence of chemical substance (yeast gene YGL253W): 2.4 | The level of expressed mRNA in the presence of chemical substance/The level of expressed mRNA in the absence of chemical substance (yeast gene YGR037C): 1.1 | The level of expressed mRNA in the presence of chemical substance/The level of expressed mRNA in the absence of chemical substance (yeast gene YGR055W): 1.1 | level of expressed mRNA in the presence/in the absence of chemical substance (yeast gene YGR096W): 1.7 | level of expressed mRNA in the presence/in the absence of chemical substance (yeast gene YGR191W): 1.1 | The level of expressed mRNA in the presence of chemical substance/The level of expressed mRNA in the absence of chemical substance (yeast gene YGR194C): 1.9 | level of expressed mRNA in the presence/in the absence of chemical substance (yeast gene YGR204W): 0.6 | The level of expressed mRNA in the presence of chemical substance/The level of expressed mRNA in the absence of chemical substance (yeast gene YGR244C): 2.6 | The level of expressed mRNA in the presence of chemical substance/The level of expressed mRNA in the absence of chemical substance (yeast gene YGR256W): 6.2 | The level of expressed mRNA in the presence of chemical substance/The level of expressed mRNA in the absence of chemical substance (yeast gene YGR282C): 2.2 | level of expressed mRNA in the presence/in the absence of chemical substance (yeast gene YHR025W): 0.8 | The level of expressed mRNA in the presence of chemical substance/The level of expressed mRNA in the absence of chemical substance (yeast gene YHR111W): 1.3 | level of expressed mRNA in the presence/in the absence of chemical substance (yeast gene YHR123W): 1.0 | The level of expressed mRNA in the presence of chemical substance/The level of expressed mRNA in the absence of chemical substance (yeast gene YHR137W): 0.7 | The level of expressed mRNA in the presence of chemical substance/The level of expressed mRNA in the absence of chemical substance (yeast gene YHR174W): 1.5 | The level of expressed mRNA in the presence of chemical substance/The level of expressed mRNA in the absence of chemical substance (yeast gene YHR176W): 2.3 | level of expressed mRNA in the presence/in the absence of chemical substance (yeast gene YHR210C): 0.7 | level of expressed mRNA in the presence/in the absence of chemical substance (yeast gene YIL006W): 0.3 | The level of expressed mRNA in the presence of chemical substance/The level of expressed mRNA in the absence of chemical substance (yeast gene YIL045W): 1.7 | The level of expressed mRNA in the presence of chemical substance/The level of expressed mRNA in the absence of chemical substance (yeast gene YIL107C): 1.0 | The level of expressed mRNA in the presence of chemical substance/The level of expressed mRNA in the absence of chemical substance (yeast gene YIL154C): 1.1 | The level of expressed mRNA in the presence of chemical substance/The level of expressed mRNA in the absence of chemical substance (yeast gene YIL155C): 1.4 | The level of expressed mRNA in the presence of chemical substance/The level of expressed mRNA in the absence of chemical substance (yeast gene YIL167W): 7.7 | The level of expressed mRNA in the presence of chemical substance/The level of expressed mRNA in the absence of chemical substance (yeast gene YIR034C): 1.3 | The level of expressed mRNA in the presence of chemical substance/The level of expressed mRNA in the absence of chemical substance (yeast gene YIR036C): 0.7 | The level of expressed mRNA in the presence of chemical substance/The level of expressed mRNA in the absence of chemical substance (yeast gene YJL031C): 1.6 | The level of expressed mRNA in the presence of chemical substance/The level of expressed mRNA in the absence of chemical substance (yeast gene YJL068C): 1.1 | The level of expressed mRNA in the presence of chemical substance/The level of expressed mRNA in the absence of chemical substance (yeast gene YJL088W): 2.8 | The level of expressed mRNA in the presence of chemical substance/The level of expressed mRNA in the absence of chemical substance (yeast gene YJL099W): 2.0 | level of expressed mRNA in the presence/in the absence of chemical substance (yeast gene YJL121C): 1.1 | level of expressed mRNA in the presence/in the absence of chemical substance (yeast gene YJL167W): 1.3 | The level of expressed mRNA in the presence of chemical substance/The level of expressed mRNA in the absence of chemical substance (yeast gene YJL172W): 3.8 | The level of expressed mRNA in the presence of chemical substance/The level of expressed mRNA in the absence of chemical substance (yeast gene YJL219W): 1.5 | The level of expressed mRNA in the presence of chemical substance/The level of expressed mRNA in the absence of chemical substance (yeast gene YJL221C): 6.6 | level of expressed mRNA in the presence/in the absence of chemical substance (yeast gene YJR077C): 0.9 | The level of expressed mRNA in the presence of chemical substance/The level of expressed mRNA in the absence of chemical substance (yeast gene YJR137C): 1.5 | level of expressed mRNA in the presence/in the absence of chemical substance (yeast gene YJR143C): 0.6 | The level of expressed mRNA in the presence of chemical substance/The level of expressed mRNA in the absence of chemical substance (yeast gene YJR148W): 2.0 | The level of expressed mRNA in the presence of chemical substance/The level of expressed mRNA in the absence of chemical substance (yeast gene YJR155W): 1.4
